Assays:
Type in all cases: physicochemical
[1] = Developed color of polymer plate under xenon light (color density, maximum absorption wavelength); details: for Color density: 0.04 parts in polymer plate; for λ max: state of developing color, polymer plate
From the text: (§1) 0.04 Parts of fulgimide compounds shown in Table 3, 70 parts of tetraethyleneglycol dimethacrylate, 15 parts of triethyleneglycol dimethacrylate, 10 parts of glycidyl methacrylate, 5 parts of 2-hydroethylmethacrylate and 1 part of perbutyl ND as a polymerization catalyst, were sufficiently mixed together until they were completely dissolved. The mixture solution was poured into a mold constituted by a glass plate and a gasket of an ethylene/vinyl acetate copolymer, and its temperature was elevated in an air oven from 35° C. to 90° C. over a period of 20 hours to effect the polymerization. After the polymerization, the polymer was taken out from the glass mold.
(§2) The obtained polymer plate was irradiated with xenon light by using a Xenon Long-Life Fade Meter FAL-25AX-HC (output: 2.5 KW, source of light: xenon long-life arc lamp) manufactured by Suga Shikenki Co., in order to measure a maximum absorption wavelength in a state of developing color. The initial color tone was observed by eyes, and YI of the samples was measured by using a color-difference meter (Model SM-4) manufactured by Suga Shikenki Co. The wear life (T 1/2) was also measured in compliance with JIS L0843 and JIS B7754. T 1/2 is defined to be the time until the color density decreases down to one-half the initial value when the polymer plate is irradiated with light by using the fade meter.
(§3) For the purpose of comparison, the fulgimide compounds represented by the following formulas (A) to (I) were also used to prepare polymer plates to measure their properties in the same procedure as described above. [drawing 113]

[2] = Initial color of polymer plate (visual observation, YI by color-difference meter); details: for Initial color, visually observed: before irradiation; for Initial color, YI: color-difference meter SM-4
From the text: as §1, §2, §3

[3] = Wear life (T 1/2) of polymer plate in xenon fade meter, JIS L0843 and JIS B7754; details: time until color density decreases to one-half the initial value
From the text: as §1, §2, §3

**Q.** Which results are given for `CC(C)C1=C2C(=O)N(S(C)(=O)=O)C(=O)C2C2(c3c1ccn3C)C1CC3CC2CC(Cl)(C3)C1` (centres unmarked) [Compound 6, 5'-Chloro-6,7-dihydro-N-methyl-N'-methylsulfonyl-4-isopropylspiroindoledicarboxyimide-7,2'-tricyclo[3.3.1.1^3,7]decane]?
**A.** Color density [1]: 0.95; λ max [1]: 601 nm; Initial color, visually observed [2]: pale yellow; Initial color, YI [2]: 4.85; T1/2 [3]: 110 h

**Q.** Which Color density [1] does the source give for `O=C1C2=C(C3CC3)c3c(sc4c3CCCC4)C3(C4CC5CC(C4)CC3C5)C2C(=O)N1S(=O)(=O)c1ccccc1` (centres unmarked) [Compound 10] here?
**A.** 1.12

**Q.** What about the λ max [1] of the same molecule?
**A.** 620 nm

**Q.** And the “Initial color, visually observed” value [2]?
**A.** pale yellow

**Q.** What about the “Initial color, YI” value [2] of the same molecule?
**A.** 4.99

**Q.** And the T1/2 [3]?
**A.** 140 h

**Q.** For `CC1=C2C(=O)N(CC#N)C(=O)C2C2(c3oc(-c4ccccc4)cc31)C1CC3CC(C1)CC2C3` (centres unmarked) [B, reference compound], which Color density [1] is on record?
**A.** 0.75

**Q.** And the λ max [1]?
**A.** 550 nm

**Q.** What about the “Initial color, visually observed” value [2] of the same molecule?
**A.** yellow

**Q.** And the “Initial color, YI” value [2]?
**A.** 10.65

**Q.** What about the T1/2 [3] of the same molecule?
**A.** 95 h

**Q.** What does the source list for `CC1=C2C(=O)N(C(=O)c3ccccc3)C(=O)C2C2(c3occc31)C1CC3CC(C1)CC2C3` (centres unmarked) [Compound 33]?
**A.** Color density [1]: 0.58; λ max [1]: 550 nm; Initial color, visually observed [2]: colorless; Initial color, YI [2]: 2.16; T1/2 [3]: 100 h

**Q.** Which results are given for `COc1ccc(-c2cc3c(s2)C2(C4CC5CC(C4)CC2C5)C2C(=O)N(CC#N)C(=O)C2=C3C)cc1` (centres unmarked) [E, reference compound]?
**A.** Color density [1]: 0.90; λ max [1]: 580 nm; Initial color, visually observed [2]: yellow; Initial color, YI [2]: 18.21; T1/2 [3]: 90 h

**Q.** Which Color density [1] does the source give for `N#CN1C(=O)C2=C(C3CC3)c3ccsc3C3(C4CC5CC(C4)CC3C5)C2C1=O` (centres unmarked) [Compound 1, N-Cyano-4-cyclopropyl-6,7-dihydrospirobenzothiophenedicarboxyimide-7,2'-tricyclo[3.3.1.1^3,7]decane] here?
**A.** 0.65

**Q.** What about the λ max [1] of the same molecule?
**A.** 615 nm

**Q.** What about the “Initial color, visually observed” value [2] of the same molecule?
**A.** colorless

**Q.** And the “Initial color, YI” value [2]?
**A.** 1.85

**Q.** What about the T1/2 [3] of the same molecule?
**A.** 400 h

**Q.** With `N#CN1C(=O)C2=C(c3ccoc3)c3ccoc3C3(C4CCC3CC4)C2C1=O` (centres unmarked) [Compound 18] as the molecule, how does the Color density [1] read?
**A.** 1.11

**Q.** And the λ max [1]?
**A.** 613 nm

**Q.** And the “Initial color, visually observed” value [2]?
**A.** colorless

**Q.** And the “Initial color, YI” value [2]?
**A.** 2.95

**Q.** And the T1/2 [3]?
**A.** 250 h

**Q.** Which Color density [1] does the source give for `CC1=C2C(=O)N(CC#N)C(=O)C2C2(c3sc(-c4ccccc4)cc31)C1CC3CC(C1)CC2C3` (centres unmarked) [D, reference compound] here?
**A.** 0.82

**Q.** What about the λ max [1] of the same molecule?
**A.** 570 nm

**Q.** What about the “Initial color, visually observed” value [2] of the same molecule?
**A.** yellow

**Q.** And the “Initial color, YI” value [2]?
**A.** 10.75

**Q.** What about the T1/2 [3] of the same molecule?
**A.** 90 h

**Q.** Which Color density [1] does the source give for `Cn1c(Cl)cc2c1C1(C3CCCC1(Cl)CCC3)C1C(=O)N(C(F)(F)F)C(=O)C1=C2c1ccccc1` (centres unmarked) [Compound 14] here?
**A.** 0.75

**Q.** What about the λ max [1] of the same molecule?
**A.** 603 nm

**Q.** And the “Initial color, visually observed” value [2]?
**A.** pale yellow

**Q.** What about the “Initial color, YI” value [2] of the same molecule?
**A.** 4.89

**Q.** What about the T1/2 [3] of the same molecule?
**A.** 100 h

**Q.** Which Color density [1] does the source give for `CC(=O)N1C(=O)C2=C(C3CC3)c3ccsc3C3(C4CC5CC(C4)CC3C5)C2C1=O` (centres unmarked) [Compound 2, N-Acetyl-4-cyclopropyl-6,7-dihydrospirobenzothiophenedicarboxyimide-7,2'-tricyclo[3.3.1.1^3,7]decane] here?
**A.** 1.20

**Q.** And the λ max [1]?
**A.** 560 nm

**Q.** What about the “Initial color, visually observed” value [2] of the same molecule?
**A.** colorless

**Q.** And the “Initial color, YI” value [2]?
**A.** 2.01

**Q.** And the T1/2 [3]?
**A.** 140 h

**Q.** Which results are given for `CCN1C(=O)C2=C(C)c3cc(-c4ccc(OC)cc4)n(C)c3C3(C4CC5CC(C4)CC3C5)C2C1=O` (centres unmarked) [G, reference compound]?
**A.** Color density [1]: 0.88; λ max [1]: 610 nm; Initial color, visually observed [2]: yellow; Initial color, YI [2]: 19.56; T1/2 [3]: 85 h

**Q.** For `CCCC1=C2C(=O)N(C(Cl)(Cl)Cl)C(=O)C2C2(c3oc4c(c31)CCCC4)C1CCC2CC1` (centres unmarked) [Compound 24], which Color density [1] is on record?
**A.** 0.94

**Q.** What about the λ max [1] of the same molecule?
**A.** 576 nm

**Q.** And the “Initial color, visually observed” value [2]?
**A.** colorless

**Q.** And the “Initial color, YI” value [2]?
**A.** 2.45

**Q.** What about the T1/2 [3] of the same molecule?
**A.** 140 h

**Q.** For `COc1cc(OC)c2c(c1)C(C)=C1C(=O)N(C#N)C(=O)C1C21C2CC3CC(C2)CC1C3` (centres unmarked) [Compound 30], which Color density [1] is on record?
**A.** 0.73

**Q.** What about the λ max [1] of the same molecule?
**A.** 590 nm

**Q.** And the “Initial color, visually observed” value [2]?
**A.** colorless

**Q.** What about the “Initial color, YI” value [2] of the same molecule?
**A.** 2.21

**Q.** And the T1/2 [3]?
**A.** 210 h
